{"source": "patent US20210137961A1", "about": "“Compositions and Methods for Treating Dry Eye Diseases” (priority 2017, published 2021)", "assay_type_in_all_cases": "cell-based", "key": {"P. acnes": {"tested_on": "P. acnes", "test": "MIC against P. acnes"}, "S. pneumoniae": {"tested_on": "S. pneumoniae", "test": "MIC against S. pneumoniae (30 species)"}, "H. influenzae": {"tested_on": "H. influenzae", "test": "MIC against H. influenzae (30 species)"}, "MSSA": {"tested_on": "MSSA", "test": "MIC against MSSA (31 species)"}, "Corynebacterium spp.": {"tested_on": "Corynebacterium spp.", "test": "MIC against Corynebacterium spp.", "details": "N 10"}, "Staphylococcus aureus": {"tested_on": "Staphylococcus aureus", "test": "MIC against Staphylococcus aureus", "details": "N 201"}, "Neisseria gonorrhoeae": {"tested_on": "Neisseria gonorrhoeae", "test": "MIC against Neisseria gonorrhoeae", "details": "N 34"}, "Streptococcus mitis": {"tested_on": "Streptococcus mitis", "test": "MIC against Streptococcus mitis", "details": "N 73"}}, "data": [{"smiles": "CC[C@H]1OC(=O)[C@@](C)(F)C(=O)[C@H](C)[C@@H](O[C@@H]2O[C@H](C)C[C@H](N(C)C)[C@H]2O)[C@](C)(OC)C[C@@H](C)C(=O)[C@H](C)[C@H]2N(CCCCn3cc(-c4cccc(N)c4)nn3)C(=O)O[C@]12C", "note": "[Solithromycin, solithromycin]", "values": [{"measurement": "MIC 50%", "setting": "P. acnes; P. acnes", "value": 0.015, "unit": "mg/L"}, {"measurement": "MIC 90%", "setting": "P. acnes; P. acnes (51 species)", "value": 0.06, "unit": "mg/L"}, {"measurement": "MIC Range", "setting": "P. acnes; P. acnes (51 species)", "value": "≤0.002 to 0.25", "unit": "mg/L"}, {"measurement": "I = intermediate susceptibility", "setting": "S. pneumoniae", "value": 0, "unit": "%"}, {"measurement": "MIC50", "setting": "S. pneumoniae", "value": 0.002, "unit": "mg/L"}, {"measurement": "MIC90", "setting": "S. pneumoniae", "value": 0.12, "unit": "mg/L"}, {"measurement": "MIC Range", "setting": "S. pneumoniae", "value": "≤0.001-0.25 ^ μg/ml"}, {"measurement": "NS = not susceptible", "setting": "S. pneumoniae", "value": 0, "unit": "%"}, {"measurement": "S = susceptible", "setting": "S. pneumoniae", "value": 100, "unit": "%"}, {"measurement": "I = intermediate susceptibility", "setting": "H. influenzae", "value": 0, "unit": "%"}, {"measurement": "MIC50", "setting": "H. influenzae", "value": 2, "unit": "mg/L"}, {"measurement": "MIC90", "setting": "H. influenzae", "value": 2, "unit": "mg/L"}, {"measurement": "MIC Range", "setting": "H. influenzae", "value": "1 to 4", "unit": "mg/L"}, {"measurement": "NS = not susceptible", "setting": "H. influenzae", "value": 0, "unit": "%"}, {"measurement": "S = susceptible", "setting": "H. influenzae", "value": 100, "unit": "%"}, {"measurement": "I = intermediate susceptibility", "setting": "MSSA", "value": 0, "unit": "%"}, {"measurement": "MIC50", "setting": "MSSA", "value": 0.015, "unit": "mg/L"}, {"measurement": "MIC90", "setting": "MSSA", "value": 0.03, "unit": "mg/L"}, {"measurement": "MIC Range", "setting": "MSSA", "value": "0.004 to 64", "unit": "mg/L"}, {"measurement": "NS = not susceptible", "setting": "MSSA", "value": 6, "unit": "%"}, {"measurement": "S = susceptible", "setting": "MSSA", "value": 94, "unit": "%"}, {"measurement": "MIC50", "setting": "Corynebacterium spp.", "value": 0.015, "unit": "mg/L"}, {"measurement": "MIC90", "setting": "Corynebacterium spp.", "value": 0.5, "unit": "mg/L"}, {"measurement": "MIC Range", "setting": "Corynebacterium spp.", "value": "≤0.008-16 ^ μg/mL"}, {"measurement": "MIC50", "setting": "Staphylococcus aureus", "value": 0.12, "unit": "mg/L"}, {"measurement": "MIC90", "setting": "Staphylococcus aureus", "value": ">16", "unit": "mg/L"}, {"measurement": "MIC50", "setting": "Neisseria gonorrhoeae", "value": 0.06, "unit": "mg/L"}, {"measurement": "MIC90", "setting": "Neisseria gonorrhoeae", "value": 0.12, "unit": "mg/L"}, {"measurement": "MIC Range", "setting": "Neisseria gonorrhoeae", "value": "0.03 to 0.25", "unit": "mg/L"}, {"measurement": "MIC50", "setting": "Streptococcus mitis", "value": "≤0.03", "unit": "mg/L"}, {"measurement": "MIC90", "setting": "Streptococcus mitis", "value": 0.06, "unit": "mg/L"}, {"measurement": "MIC Range", "setting": "Streptococcus mitis", "value": "≤0.03-0.25^ μg/mL"}]}]}
